Measurements from PMC4891047, “A 20(S)-protopanoxadiol derivative overcomes multi-drug resistance by antagonizing ATP-binding cassette subfamily B member 1 transporter function” (Oncotarget, 2016).
Like-named read-outs stand apart in the source and are kept apart here.

Legend:
ABCB1 [1] = biological target: T1, ABCB1 (Homo sapiens, UniProt P08183); assay: biochemical
T1 construct: membrane vesicles (Pgp-Glo assay system)

ABCB1 [2] = biological target: T1, ABCB1; assay: biochemical; remark: listed apart in the source

T1 sequence (P08183 whole entry): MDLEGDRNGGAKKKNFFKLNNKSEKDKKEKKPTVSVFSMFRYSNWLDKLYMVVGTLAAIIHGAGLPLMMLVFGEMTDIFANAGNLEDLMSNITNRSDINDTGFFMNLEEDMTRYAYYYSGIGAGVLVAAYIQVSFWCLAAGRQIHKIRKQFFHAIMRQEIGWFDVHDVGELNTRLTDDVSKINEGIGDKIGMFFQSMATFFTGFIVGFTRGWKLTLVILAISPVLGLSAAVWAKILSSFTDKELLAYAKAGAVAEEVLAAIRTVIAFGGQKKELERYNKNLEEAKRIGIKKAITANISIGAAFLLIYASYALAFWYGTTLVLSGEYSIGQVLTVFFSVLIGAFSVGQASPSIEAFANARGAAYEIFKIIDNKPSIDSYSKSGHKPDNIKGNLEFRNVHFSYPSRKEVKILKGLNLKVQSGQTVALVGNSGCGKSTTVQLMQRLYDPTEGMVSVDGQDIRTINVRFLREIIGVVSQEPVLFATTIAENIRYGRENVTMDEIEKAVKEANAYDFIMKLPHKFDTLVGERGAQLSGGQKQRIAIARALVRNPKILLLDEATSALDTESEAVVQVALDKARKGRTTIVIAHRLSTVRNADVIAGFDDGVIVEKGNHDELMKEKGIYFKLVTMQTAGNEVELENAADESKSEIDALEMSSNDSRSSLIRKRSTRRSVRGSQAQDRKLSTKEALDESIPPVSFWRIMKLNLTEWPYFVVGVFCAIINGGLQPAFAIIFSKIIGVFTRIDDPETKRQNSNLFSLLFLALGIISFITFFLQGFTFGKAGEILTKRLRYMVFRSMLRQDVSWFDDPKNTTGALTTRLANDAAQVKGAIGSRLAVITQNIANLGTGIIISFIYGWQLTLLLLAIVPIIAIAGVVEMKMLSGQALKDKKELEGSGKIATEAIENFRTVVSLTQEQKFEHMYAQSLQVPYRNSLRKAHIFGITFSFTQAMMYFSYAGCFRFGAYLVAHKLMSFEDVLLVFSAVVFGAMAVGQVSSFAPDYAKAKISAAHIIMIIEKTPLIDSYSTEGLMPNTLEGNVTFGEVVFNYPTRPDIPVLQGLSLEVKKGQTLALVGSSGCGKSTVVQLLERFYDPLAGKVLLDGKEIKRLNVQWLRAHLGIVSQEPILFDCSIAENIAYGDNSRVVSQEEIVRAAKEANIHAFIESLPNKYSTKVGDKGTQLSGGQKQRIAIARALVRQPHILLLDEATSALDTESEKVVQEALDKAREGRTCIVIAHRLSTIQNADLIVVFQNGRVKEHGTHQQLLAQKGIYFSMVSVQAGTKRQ

Compound | EC50 (ABCB1 [1]) [nM] | EC50 (ABCB1 [2]) [nM]
COc1ccc(CNCCC[C@](C)(O)[C@H]2CC[C@]3(C)[C@@H]2[C@H](O)C[C@@H]2[C@@]4(C)CC[C@H](O)C(C)(C)[C@@H]4CC[C@]23C)cc1 [PPD11] | 2380 | 
CC1(C)[C@@H](O)CC[C@]2(C)[C@H]3C[C@@H](O)[C@@H]4[C@@H]([C@@](C)(O)CCCNCc5ccccc5)CC[C@@]4(C)[C@]3(C)CC[C@@H]12 [PPD12] |  | 1520
CC(C)=CCC[C@](C)(O)[C@H]1CC[C@]2(C)[C@@H]1[C@H](O)C[C@@H]1[C@@]3(C)CC[C@H](O)C(C)(C)[C@@H]3CC[C@]12C [PPD, 20(S)-protopanoxadiol] | 3130 | 
